Measured values reported in ChEMBL document CHEMBL4665754, “Discovery of a coumarin derivative as Nrf2 activator mitigating oxidative stress and fibrosis in mesangial cells under high glucose” (Bioorg Med Chem Lett, 2020).
The source made the active and inactive calls. The rule behind the calls is not given here.

Legend:
[1] = molecular target: T1, Nuclear factor erythroid 2-related factor 2 (Homo sapiens) (UniProt Q16236); experiment: Activation of Nrf2 (unknown origin) in mesangial cell assessed as increase in translocation of Nrf2 into nuclei from cytosol at 5 to 10 uM in presence of high glucose by Western blot based densitometric assay; type: tissue-based; details: dose microM 5-10
T1 sequence (whole entry): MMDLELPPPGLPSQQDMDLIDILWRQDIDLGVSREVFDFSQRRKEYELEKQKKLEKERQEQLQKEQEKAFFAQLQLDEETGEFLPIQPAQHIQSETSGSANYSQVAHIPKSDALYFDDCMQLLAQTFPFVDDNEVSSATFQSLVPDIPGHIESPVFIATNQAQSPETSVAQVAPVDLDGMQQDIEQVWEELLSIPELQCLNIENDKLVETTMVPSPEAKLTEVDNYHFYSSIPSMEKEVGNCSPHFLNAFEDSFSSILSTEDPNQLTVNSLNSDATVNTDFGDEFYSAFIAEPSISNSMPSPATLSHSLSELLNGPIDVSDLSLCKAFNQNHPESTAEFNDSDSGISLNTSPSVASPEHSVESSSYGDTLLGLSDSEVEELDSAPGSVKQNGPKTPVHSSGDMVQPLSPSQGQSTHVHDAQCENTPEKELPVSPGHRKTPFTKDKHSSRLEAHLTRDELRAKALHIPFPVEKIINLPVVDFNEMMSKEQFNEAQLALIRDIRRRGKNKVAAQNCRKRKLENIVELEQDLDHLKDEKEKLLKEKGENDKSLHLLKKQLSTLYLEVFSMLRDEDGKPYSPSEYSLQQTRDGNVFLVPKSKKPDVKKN

[2] = molecular target: T2, Keap1/Nrf2 (Homo sapiens) (UniProt Q16236+Q14145); experiment: Disruption of interaction between Nrf2/Keap1 (unknown origin) in mesangial cell assessed as decrease in Keap1 immunoprecipitate at 10 uM in presence of high glucose by Co-immunoprecipitation assay; type: tissue-based
T2 sequence (Q14145 whole entry, looked up, one chain of several): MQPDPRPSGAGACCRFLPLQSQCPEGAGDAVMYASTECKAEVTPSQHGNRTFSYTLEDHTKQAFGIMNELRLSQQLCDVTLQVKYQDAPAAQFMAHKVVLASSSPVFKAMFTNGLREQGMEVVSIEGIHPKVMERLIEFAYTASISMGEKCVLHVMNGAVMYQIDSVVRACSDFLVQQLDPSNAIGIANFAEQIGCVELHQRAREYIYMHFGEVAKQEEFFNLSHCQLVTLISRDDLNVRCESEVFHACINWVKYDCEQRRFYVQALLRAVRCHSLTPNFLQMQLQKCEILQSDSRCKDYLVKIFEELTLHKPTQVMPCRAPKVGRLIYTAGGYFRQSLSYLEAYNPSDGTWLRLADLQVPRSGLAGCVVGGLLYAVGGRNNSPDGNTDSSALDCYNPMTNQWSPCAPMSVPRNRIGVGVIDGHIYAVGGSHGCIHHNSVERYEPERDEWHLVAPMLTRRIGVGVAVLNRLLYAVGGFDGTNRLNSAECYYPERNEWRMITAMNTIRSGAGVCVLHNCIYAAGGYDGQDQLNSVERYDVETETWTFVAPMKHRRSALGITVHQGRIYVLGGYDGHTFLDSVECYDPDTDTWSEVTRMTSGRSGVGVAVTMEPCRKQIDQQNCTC

[3] = molecular target: T2, Keap1/Nrf2 (Homo sapiens); experiment: Disruption of interaction between Nrf2/Keap1 (unknown origin) in mesangial cell assessed as increase of Nrf2 immunoprecipitate at 10 uM in presence of high glucose by Co-immunoprecipitation assay; type: tissue-based
[4] = molecular target: T2, Keap1/Nrf2 (Homo sapiens); experiment: Disruption of interaction between Nrf2/Keap1 (unknown origin) in mesangial cells assessed as reduction in high glucose-induced fibronectin secretion at 10 uM in presence of 10 uM ML385 by ELISA; type: cell-based; details: Mesangial cell
[5] = molecular target: T2, Keap1/Nrf2 (Homo sapiens); experiment: Disruption of interaction between Nrf2/Keap1 (unknown origin) in mesangial cells assessed as reduction in high glucose-induced collagen IV secretion at 10 uM in presence of 10 uM ML385 by ELISA; type: cell-based; details: Mesangial cell
[6] = molecular target: T2, Keap1/Nrf2 (Homo sapiens); experiment: Disruption of interaction between Nrf2/Keap1 (unknown origin) in mesangial cells assessed as reduction in high glucose-induced fibronectin secretion at 5 to 10 uM by ELISA; type: cell-based; details: Mesangial cell, dose microM 5-10
[7] = molecular target: T2, Keap1/Nrf2 (Homo sapiens); experiment: Disruption of interaction between Nrf2/Keap1 (unknown origin) in mesangial cells assessed as reduction in high glucose-induced collagen IV secretion at 5 to 10 uM by ELISA; type: cell-based; details: Mesangial cell, dose microM 5-10
[8] = molecular target: T2, Keap1/Nrf2 (Homo sapiens); experiment: Disruption of interaction between Nrf2/Keap1 (unknown origin) in mesangial cells assessed as reduction in high glucose-induced intracellular MDA level at 10 uM in presence of 10 uM ML385; type: cell-based; details: Mesangial cell
[9] = molecular target: T2, Keap1/Nrf2 (Homo sapiens); experiment: Disruption of interaction between Nrf2/Keap1 (unknown origin) in mesangial cells assessed as reduction in high glucose-induced intracellular ROS production at 10 uM in presence of 10 uM ML385 by DCFH-DA assay; type: cell-based; details: Mesangial cell
[10] = molecular target: T2, Keap1/Nrf2 (Homo sapiens); experiment: Disruption of interaction between Nrf2/Keap1 (unknown origin) in mesangial cells assessed as reduction in high glucose-induced intracellular MDA level at 5 to 10 uM; type: cell-based; details: Mesangial cell, dose microM 5-10
[11] = molecular target: T2, Keap1/Nrf2 (Homo sapiens); experiment: Disruption of interaction between Nrf2/Keap1 (unknown origin) in mesangial cells assessed as reduction in high glucose-induced intracellular ROS production at 5 to 10 uM by DCFH-DA assay; type: cell-based; details: Mesangial cell, dose microM 5-10
[12] = molecular target: T1, Nuclear factor erythroid 2-related factor 2 (Homo sapiens); experiment: Activation of Nrf2 (unknown origin) in mesangial cell assessed as increase in transcription ability of Nrf2 binding to ARE by measuring increase luciferase activity at 5 to 10 uM in presence of high glucose by luciferase reporter gene assay; type: tissue-based; details: dose microM 5-10
[13] = molecular target: T1, Nuclear factor erythroid 2-related factor 2 (Homo sapiens); experiment: Activation of Nrf2 (unknown origin) in mesangial cell at 5 and 10 uM in presence of high glucose by Western blot based densitometric assay; type: tissue-based; details: dose microM 5-10
[14] = molecular target: T1, Nuclear factor erythroid 2-related factor 2 (Homo sapiens); experiment: Activation of Nrf2 (unknown origin) in mesangial cell assessed as strong red fluorescence at 5 and 10 uM in presence of high glucose by immunofluorescence staining based assay; type: tissue-based; details: dose microM 5-10
[15] = tested on: Mesangial cell; experiment: Inhibition of glucose-induced cell proliferation in Mesangial cell (unknown origin) at 5 and 10 uM by CCK8 assay; type: functional, tissue-based; details: dose microM 5-10
[16] = Cytotoxicity against Mesangial cell (unknown origin) at 0.01 to 100 uM by CCK8 assay; type: tissue-based; details: dose 0.01-100 µM
[17] = molecular target: T2, Keap1/Nrf2 (Homo sapiens); experiment: Disruption of interaction between Nrf2/Keap1 (unknown origin) in mesangial cells assessed as reduction in high glucose-induced collagen IV secretion at 10 uM by ELISA; type: cell-based; details: Mesangial cell
[18] = molecular target: T2, Keap1/Nrf2 (Homo sapiens); experiment: Disruption of interaction between Nrf2/Keap1 (unknown origin) in mesangial cells assessed as reduction in high glucose-induced intracellular MDA level at 10 uM; type: cell-based; details: Mesangial cell
[19] = tested on: Mesangial cell; experiment: Inhibition of glucose-induced cell proliferation in Mesangial cell (unknown origin) at 10 uM by CCK8 assay; type: functional, tissue-based

Structure (SMILES) | Activity [1] | Activity [2] | Activity [3] | inhibition [4] | inhibition [5] | inhibition [6] | inhibition [7] | inhibition [8] | inhibition [9] | inhibition [10] | inhibition [11] | Activity [12] | Activity [13] | Activity [14] | inhibition [15] | Activity [16] | inhibition [17] | inhibition [18] | inhibition [19]
COc1cc2cc(Oc3ccc4ccc(=O)oc4c3)c(=O)oc2cc1O[C@@H]1O[C@H](CO)[C@@H](O)[C@H](O)[C@H]1O [DAPHNORIN] | Active | Active | Active | inactive | inactive | Active | Active | inactive | inactive | Active | Active | Active | Active | Active | Active | Non-Toxic | – | – | –
COc1cc2cc(Oc3ccc4ccc(=O)oc4c3)c(=O)oc2cc1O [DAPHNORETIN] | – | – | – | – | – | – | – | – | – | – | – | – | – | – | – | Non-Toxic | Active | Active | Active
O=c1ccc2ccc(Oc3cc4ccc(=O)oc4cc3O)cc2o1 | – | – | – | – | – | – | – | – | – | – | – | – | – | – | – | Non-Toxic | Active | Active | Active
O=c1ccc2ccc(Oc3cc4ccc(O)cc4oc3=O)cc2o1 [EDGEWORIN] | – | – | – | – | – | – | – | – | – | – | – | – | – | – | – | Non-Toxic | Active | Active | Active
